# Measurements as given in patent US20050101612A1, “Use of indole-3-acetic acids in the treatment of asthma, copd and other diseases” (priority 2002, published 2005).
# How the values were obtained:
# CRTh2 receptor = target: T1, CRTh2 receptor (Homo sapiens, UniProt Q9Y5Y4); assay: Intracellular calcium mobilisation (FLIPR, inhibition of PGD2 response) in HEK-hrCRTh2-Gα16 cells; assay type: cell-based; details: antagonism of 2×p[A]50 PGD2, Cheng-Prusoff analysis, read-out: pA2 (converted)
# T1 construct: expressed in transfected cells
# T1 sequence (Q9Y5Y4 1-395): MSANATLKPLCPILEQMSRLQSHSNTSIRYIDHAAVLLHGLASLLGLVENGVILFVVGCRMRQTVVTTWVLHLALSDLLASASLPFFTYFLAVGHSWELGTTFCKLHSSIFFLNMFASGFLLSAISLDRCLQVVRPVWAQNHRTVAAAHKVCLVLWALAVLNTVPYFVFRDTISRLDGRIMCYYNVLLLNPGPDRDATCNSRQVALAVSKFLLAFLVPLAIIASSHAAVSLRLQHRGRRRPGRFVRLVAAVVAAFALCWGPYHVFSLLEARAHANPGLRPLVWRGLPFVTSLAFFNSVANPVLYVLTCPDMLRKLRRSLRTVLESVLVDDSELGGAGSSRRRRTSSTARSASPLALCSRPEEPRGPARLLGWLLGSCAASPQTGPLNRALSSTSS
# Description: Intracellular Calcium Mobilisation
# Human Embryonic Kidney Cells co-transfected with both the CRTh2 receptor and Gα16 G-protein (HEK-hrCRTh2-Gα16) are routinely cultured as monolayers in Dulbecco's Modified Eagles Medium (DMEM; Sigma) supplemented with 10% (v:v) heat inactivated foetal bovine serum (New Zealand sourced; Hyclone), 1% (v:v) non-essential amino acids (Gibco BRL), 1% (v:v) penicillin/streptomycin (Gibco BRL), 2 mM L-glutamine (Gibco BRL) and grown under 1 mg/ml (v:v) Geneticin (Gibco BRL) antibiotic selection. Approximately 24 hours prior to the assay the cells are plated at a seeding density of 100,000 cells/well in 100 μl growth media into black walled 96 well Poly-D-Lysine coated plates (Becton Dickinson), with clear bottoms to allow cell inspection and fluorescence measurements from the bottom of each well. All cultures are maintained under standard tissue culture conditions (37° C. in a humidified atmosphere of 5% CO2).
# To enable changes in intracellular calcium levels to be measured in HEK-hrCRTh2-Gα16 cells fluo-3AM is utilised as the fluorescent calcium indicator. A dye loading buffer is prepared which consists of a final concentration of 5 μM Fluo-3AM fluorescent cytoplasmic calcium indicator dye (Tef Labs), 2.2 μl/ml Pluronic F127 (Molecular Probes) to promote dye uptake, and 0.5 mM brilliant black (Sigma) to reduce background fluorescence in Balanced Salt Solution (BSS; 125 mM NaCl, 5.4mM KCl, 16.2 mM NaHCO3, 0.8 mM MgCl2, 1 mM CaCl2, 20 mM HEPES, 1 mM NaH2PO4, 5.5 mM D-(+)-Glucose, 0.1% BSA and pH 7.4 with NaOH). […]
# Test compounds are made up at a stock concentration of 10 mM in DMSO. The compounds to be evaluated are then prepared, by serial dilution in BSS buffer, to the required concentrations for inhibition dose response curves to be constructed. […] This allows the potency agonist ([A]50) value to be determined for the HEK-hrCRTh2-Gα16 cells on any given day. Once the p[A]50 for PGD2 has been determined a separate assay plate containing 2×p[A]50 of PGD2 is prepared as the 2nd addition plate (or agonist plate). […]
melting point,Kb (CRTh2 receptor),Structure (SMILES)
160 to 162 °C,316 nM,"COc1ccc2c(c1)c(CC(=O)O)c(C)n2-c1cc(C)nc(-c2ccccc2)n1 [Example 1, [5-methoxy-2-methyl-1-(6-methyl-2-phenylpyrimidin4-yl)-1H-indol-3-yl]acetic acid]"
158 to 160 °C,316 nM,"COc1ccc2c(c1)c(CC(=O)O)c(C)n2-c1nc2ccccc2s1 [Example 2, [1-(1,3-benzothiazol-2-yl)-5-methoxy-2-methyl-1H-indol-3-yl]acetic acid]"
168 to 170 °C,,"COc1ccc2c(c1)c(CC(=O)O)c(C)n2-c1cc(Oc2ccccc2)nc(Oc2ccccc2)n1 [Example 3, [1-(2,6-diphenoxypyrimidin-4-yl)-5-methoxy-2-methyl-1H-indol-3-yl]acetic acid]"
,158 nM,"Cc1ccc2c(c1)c(CC(=O)O)c(C)n2-c1cc(Oc2ccccc2)nc(Oc2ccccc2)n1 [[1-(2,6-diphenoxypyrimidin-4-yl)-2,5-dimethyl-1H-indol-3-yl]acetic acid]"
